Measurements from patent US8685977B2, “Chemical compounds” (Pfizer Limited, priority 2010, dated 2014).

Biological target: T1, Nav1.7 (or SCN9A) channel (Homo sapiens, UniProt Q15858)
T1 construct: expressed in transfected cells
Test: Nav1.7 Ionworks Quattro automated electrophysiology assay (HEK cells expressing hSCN9A)
Assay type: cell-based
Conditions: Ionworks assay (IW), read-out: Nav1.7 EIC50 (IW)
Experimental: The ability of the compounds of formula (I) to block the Nav1.7 (or SCN9A) channel was measured using the assays described below. Human Embryonic Kidney (HEK) cells were transfected with an hSCN9A construct using lipofectamine reagent (Invitrogen), using standard techniques. Cells stably expressing the hSCN9A constructs were identified by their resistance to G-418 (400 μg/ml). Clones were screened for expression using the whole-cell voltage-clamp technique. HEK cells stably transfected with hSCN9A were maintained in DMEM medium supplemented with 10% heat-inactivated fetal bovine serum and 400 μg/ml G-418 in an incubator at 37° C. with a humidified atmosphere of 10% CO2. For HTS, cells were harvested from flasks by trypsinization and replated in an appropriate multi-well plate (typically 96 or 384 wells/plate) such that confluence would be achieved within 24 hours of plating. For electrophysiological studies, cells were removed from the culture flask by brief trypsinization and re-plated at low density onto glass cover slips. Cells were typically used for electrophysiological experiments within 24 to 72 hours after plating. Electrophysiological assays were also conducted using the lonworks Quattro automated electrophysiological platform (Molecular Devices Corp). Intracellular and extracellular solutions were as described above with the following changes, 100 μg/ml amphotericin was added to the intracellular solution to perforate the membrane and allow electrical access to the cells. hSCN9A cells were grown and harvested as for PatchXpress and cells were resuspended in extracellular solution at a concentration of 3−4×10^6 cells/ml. The onboard liquid handling facility of the lonworks Quattro was used for dispensing cells and application of test compounds. A voltage protocol was then applied that comprised of a voltage step to fully inactivate the sodium channels, followed by a brief hyperpolarized recovery period to allow partial recovery from inactivation for unblocked sodium channels, followed by a test depolarized voltage step to assess magnitude of inhibition by test compound. Compound effect was determined based on current amplitude difference between the pre-compound addition and post-compound addition scans. Compounds of the Examples were tested in the assays described above and found to have the Nav1.7 EIC50 (μM) values specified in the table below. All data are derived from the PatchXpress assay unless explicitly stated otherwise.

T1 sequence (Q15858 whole entry): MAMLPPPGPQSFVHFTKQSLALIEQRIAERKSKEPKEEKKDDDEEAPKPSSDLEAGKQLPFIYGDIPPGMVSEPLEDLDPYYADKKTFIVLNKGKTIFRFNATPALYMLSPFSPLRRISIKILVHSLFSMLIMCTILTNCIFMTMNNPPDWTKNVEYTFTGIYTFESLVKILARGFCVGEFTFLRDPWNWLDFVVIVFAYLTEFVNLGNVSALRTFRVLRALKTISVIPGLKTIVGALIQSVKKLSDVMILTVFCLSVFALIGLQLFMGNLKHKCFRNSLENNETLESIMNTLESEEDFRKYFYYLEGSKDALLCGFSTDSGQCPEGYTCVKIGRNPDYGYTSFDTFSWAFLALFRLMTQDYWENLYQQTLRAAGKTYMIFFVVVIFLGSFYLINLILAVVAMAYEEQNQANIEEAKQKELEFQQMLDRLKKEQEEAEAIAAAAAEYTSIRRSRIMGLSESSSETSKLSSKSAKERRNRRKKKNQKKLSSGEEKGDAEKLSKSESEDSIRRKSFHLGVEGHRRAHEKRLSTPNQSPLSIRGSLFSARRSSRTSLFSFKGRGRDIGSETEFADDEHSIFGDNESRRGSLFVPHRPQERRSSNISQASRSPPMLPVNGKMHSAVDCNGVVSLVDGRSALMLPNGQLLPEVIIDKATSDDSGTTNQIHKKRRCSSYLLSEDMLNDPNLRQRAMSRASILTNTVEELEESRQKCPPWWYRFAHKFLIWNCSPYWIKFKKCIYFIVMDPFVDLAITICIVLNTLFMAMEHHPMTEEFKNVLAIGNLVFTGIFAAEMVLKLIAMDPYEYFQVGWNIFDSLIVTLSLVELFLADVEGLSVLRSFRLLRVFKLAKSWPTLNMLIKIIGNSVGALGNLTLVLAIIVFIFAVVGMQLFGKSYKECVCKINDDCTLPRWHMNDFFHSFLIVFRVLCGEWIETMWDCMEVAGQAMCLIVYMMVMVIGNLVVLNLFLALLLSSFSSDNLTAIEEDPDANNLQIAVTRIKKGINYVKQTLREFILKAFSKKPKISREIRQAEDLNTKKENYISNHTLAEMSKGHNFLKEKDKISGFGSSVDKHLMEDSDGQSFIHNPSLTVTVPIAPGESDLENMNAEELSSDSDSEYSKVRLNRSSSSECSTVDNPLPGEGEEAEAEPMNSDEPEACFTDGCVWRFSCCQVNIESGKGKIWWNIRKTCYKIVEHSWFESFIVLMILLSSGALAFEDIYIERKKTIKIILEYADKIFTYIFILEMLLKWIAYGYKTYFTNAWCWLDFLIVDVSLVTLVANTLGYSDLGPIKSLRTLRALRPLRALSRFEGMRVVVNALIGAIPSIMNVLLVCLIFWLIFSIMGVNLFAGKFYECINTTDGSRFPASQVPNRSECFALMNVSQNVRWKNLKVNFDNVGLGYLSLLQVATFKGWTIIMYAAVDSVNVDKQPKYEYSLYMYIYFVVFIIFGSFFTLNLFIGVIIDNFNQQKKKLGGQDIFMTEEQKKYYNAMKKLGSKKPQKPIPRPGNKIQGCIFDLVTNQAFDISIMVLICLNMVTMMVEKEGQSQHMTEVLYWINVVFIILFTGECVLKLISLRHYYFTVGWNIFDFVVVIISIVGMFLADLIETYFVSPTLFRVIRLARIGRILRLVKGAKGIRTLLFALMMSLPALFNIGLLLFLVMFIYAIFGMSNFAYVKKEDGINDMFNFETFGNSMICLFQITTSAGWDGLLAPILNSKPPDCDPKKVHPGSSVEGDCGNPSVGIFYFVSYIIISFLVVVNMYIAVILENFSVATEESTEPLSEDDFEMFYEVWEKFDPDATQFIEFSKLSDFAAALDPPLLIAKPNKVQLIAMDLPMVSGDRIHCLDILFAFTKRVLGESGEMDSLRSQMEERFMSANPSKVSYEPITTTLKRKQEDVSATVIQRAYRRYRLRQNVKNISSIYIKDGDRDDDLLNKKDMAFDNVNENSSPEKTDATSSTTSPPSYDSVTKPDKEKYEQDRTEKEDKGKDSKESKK

IC50 [µM]	SMILES
13.7	CS(=O)(=O)NC(=O)c1ccc(Oc2cc(C(F)(F)F)ccc2Cl)cc1 [Example 207, 4-[2-chloro-5-(trifluoromethyl)phenoxy]-N-(methylsulfonyl)benzamide]
18.7	CS(=O)(=O)NC(=O)c1ccc(Oc2ccc(F)c(C(F)(F)F)c2)cc1 [Example 208, 4-[4-fluoro-3-(trifluoromethyl)phenoxy]-N-(methylsulfonyl)benzamide]
28.2	CS(=O)(=O)NC(=O)c1ccc(Oc2ccccc2OC(F)(F)F)cc1 [Example 209, N-(methylsulfonyl)-4-[2-(trifluoromethoxy)phenoxy]benzamide]
288	CS(=O)(=O)NC(=O)c1ccc(Oc2cccc(C(F)(F)F)c2Cl)cc1 [Example 210, 4-[2-chloro-3-(trifluoromethyl)phenoxy]-N-(methylsulfonyl)benzamide]
67	CS(=O)(=O)NC(=O)c1ccc(Oc2ccccc2C#N)cc1 [Example 211, 4-(2-cyanophenoxy)-N-(methylsulfonyl)benzamide]
300	COc1c(C(=O)NS(C)(=O)=O)ccc(Oc2ccc(C)cc2)c1F [Example 226, 3-fluoro-2-methoxy-4-(4-methylphenoxy)-N-(methylsulfonyl)benzamide]
144	COc1cc(C(=O)NS(C)(=O)=O)ccc1Oc1ccc(F)c(C(F)(F)F)c1 [Example 241, 4-[4-fluoro-3-(trifluoromethyl)phenoxy]-3-methoxy-N-(methylsulfonyl)benzamide]
116	Cc1ccccc1Oc1ccc(C(=O)NS(C)(=O)=O)cc1C#N [Example 275, 3-cyano-4-(2-methylphenoxy)-N-(methylsulfonyl)benzamide]
3.91	CS(=O)(=O)NC(=O)c1cc(Cl)c(Oc2ccccc2Cl)cc1F [Example 300, 5-chloro-4-(2-chlorophenoxy)-2-fluoro-N-(methylsulfonyl)benzamide]
61.7	COc1ccc(Oc2cc(F)c(C(=O)NS(C)(=O)=O)cc2Cl)cc1 [Example 301, 5-chloro-2-fluoro-4-(4-methoxyphenoxy)-N-(methylsulfonyl)benzamide]
> 323	CS(=O)(=O)NC(=O)c1cc(F)c(Oc2ccccc2C#N)cc1F [Example 327, 4-(2-cyanophenoxy)-2,5-difluoro-N-(methylsulfonyl)benzamide]

Further lines, the compound ahead of its results:

SMILES	IC50 [µM]
COc1c(C(=O)NS(C)(=O)=O)ccc(Oc2ccc(Cl)c(F)c2)c1F [Example 221, 4-(4-chloro-3-fluorophenoxy)-3-fluoro-2-methoxy-N-(methylsulfonyl)benzamide]	300
COc1cc(Oc2ccc(Cl)cc2)ccc1C(=O)NS(C)(=O)=O [Example 235, 4-(4-chlorophenoxy)-2-methoxy-N-(methylsulfonyl)benzamide]	36.6
CS(=O)(=O)NC(=O)c1ccc(Oc2ccc(C(F)(F)F)cc2)cc1C#N [Example 243, 2-cyano-N-(methylsulfonyl)-4-[4-(trifluoromethyl)phenoxy]benzamide]	11.9
CCOc1cccc(Oc2ccc(C(=O)NS(C)(=O)=O)cc2)c1 [Example 259, 4-(3-ethoxyphenoxy)-N-(methylsulfonyl)benzamide]	> 323
CS(=O)(=O)NC(=O)c1ccc(Oc2ccccc2C(F)(F)F)c(C#N)c1 [Example 271, 3-cyano-N-(methylsulfonyl)-4-[2-(trifluoromethyl)phenoxy]benzamide]	> 323
CCOc1ccccc1Oc1ccc(C(=O)NS(C)(=O)=O)cc1C#N [Example 273, 3-cyano-4-(2-ethoxyphenoxy)-N-(methylsulfonyl)benzamide]	44.8
COc1ccc(Oc2ccc(C(=O)NS(C)(=O)=O)cc2C#N)cc1 [Example 274, 3-cyano-4-(4-methoxyphenoxy)-N-(methylsulfonyl)benzamide]	277

Biological target: T1, Nav1.7 (or SCN9A) channel
Test: Nav1.7 PatchXpress 7000 automated electrophysiology assay (HEK cells stably expressing hSCN9A)
Assay type: cell-based
Conditions: voltage-clamped at V1/2 of inactivation, read-out: Nav1.7 EIC50
Procedure, shortened: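 Automated whole-cell clamp (PatchXpress) of HEK cells stably expressing hSCN9A, at 22-24 °C, in extracellular buffer at pH 7.4. Cells were held at the measured V1/2 of inactivation, then stepped to 0 mV for 20 ms. Single-concentration % inhibition gave EIC50 = concentration × (100 − %inhibition)/%inhibition, excluding <20% or >80%.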

SMILES	IC50 [µM]
COc1cc(Oc2ccc(Cl)c(C(F)(F)F)c2)ccc1C(=O)NS(C)(=O)=O [Example 326, 4-(4-chloro-3-(trifluoromethyl)phenoxy)-2-methoxy-N-(methylsulfonyl)benzamide]	4.1
